Laboratory results taken from ChEMBL document CHEMBL4715735, “Sesquiterpenes from Inula japonica with Inhibitory Effects on Nitric Oxide Production in Murine Macrophage RAW 264.7 Cells” (J Nat Prod, 2016).

System: RAW264.7
Assay: Inhibition of LPS-induced NO production in mouse RAW264.7 cells incubated for 24 hrs by Griess reagent based assay
Assay type: functional, cell-based
Conditions: RAW264.7, 24 h

Row | SMILES | IC50 [nM]
1 | COc1ccc2c(c1)c(CC(=O)O)c(C)n2C(=O)c1ccc(Cl)cc1 [INDOMETHACIN] | 11600
2 | C=C1C(=O)O[C@@H]2C[C@H](C)C(CCC(C)=O)=CC[C@H]12 [TOMENTOSIN] | 2000
3 | C=C1C(=O)O[C@H]2C[C@H](C)[C@@H]3[C@@H](OC(C)=O)C[C@H](O)[C@@]3(C)C[C@H]12 | 2800
4 | C=C1C(=O)O[C@H]2C[C@@H](C)[C@@H]3[C@H](OC(C)=O)C[C@H](O)[C@@]3(C)[C@@H](O)[C@H]12 | 15400
5 | C=C1C(=O)O[C@H]2C[C@@H](C)[C@@H]3CC[C@H](O)[C@@]3(C)C[C@H]12 [PSEUDOGUAIANOLIDE] | 2500
6 | C=C1C(=O)O[C@H]2C[C@@H](C)[C@@H]3[C@@H](OC(C)=O)C[C@H](O)[C@]3(C)[C@@H](OC(C)=O)[C@H]12 | 3200

Results, then the molecule that gave them:

Row | IC50 [nM] | SMILES
7 | 2500 | C=C1C(=O)O[C@H]2C[C@@H](C)[C@@H]3[C@@H](OC(C)=O)C[C@H](OC(C)=O)[C@@]3(C)[C@@H](O)[C@H]12
8 | 6600 | C=C1C(=O)O[C@@H]2CC(C)=C([C@@H](C)CCCOC(C)=O)[C@@H](OC(=O)C[C@H](C)CC)[C@H]12
